# According to patent US20050234073A1, “Methods of inhibiting inflammation” (priority 2003, published 2005):
# Test system: BMDCs
# Test: Flow cytometry of surface markers on BMDCs
# Format: cell-based, mouse
# Description: FIG. 17E is a flow cytometric analysis showing BMDCs cultured for 4 days with BMS212122 were stained with FITC-conjugated mAb 1B1. Dashed line represents the isotype control.
# FIG. 18 is flow cytometric analysis of in vitro differentiated bone marrow cells from wild type mice incubated with BMS212122 (MTPi) or vehicle Surface staining was performed using antibodies to MHC II (FITC-conjugated) and CD11c (PE-conjugated).
# Bone marrow was extracted from the femurs of C57BL6 or MTPmx1cre mice, washed once in PBS and resuspended in R10 supplemented with culture supernatant from murine GM-CSF transfected cells for a final concentration of 200 U/mL GM-CSF. BMDCs were then cultured in bacteriological plates for 12-14 days as described. Differentiated cells were harvested by gentle pipetting, washed in PBS, and analyzed by flow cytometry for surface expression of CD11c and I-A^b. Human monocytes were harvested from the peripheral blood of healthy volunteers by positive selection on CD14 magnetic beads (Miltenyi Biotec) and cultured in R10 medium at 10^6 cells per mL supplemented with 200 U/mL recombinant hIL-4 and 300 U/mL recombinant hGM-CSF (PeproTech, Rocky Hill, N.J.). After 5 days cells were dislodged by gentle pipetting, analyzed by flow cytometry and assayed for antigen presentation.
# Mouse cells were stained using the following antibodies: FITC-conjugated α-CD1d (1B1, PharMingen); PE-conjugated α-CD11c (HL3, PharMingen); FITC-conjugated α-1-A^d (AMS-32.1, PharMingen); PE-conjugated α-CD69 (H1.2F3, PharMingen); PE-conjugated α-B220 (RA3-6B2, PharMingen). Human cells were stained using: PE-conjugated α-CD83 (550634, PharMingen); FITC-conjugated α-HLA-A,B,C (557348, PharMingen); α-HLA DR,DP,DQ (32381A, PharMingen); α-CD1d (42.1 or 51.1.3); α-mouse IgG+IgM (AMI1708, Biosource, Camarillo, Calif.). Staining was performed in the presence of Via-Probe (PharMingen) and analyzed with a FACSort flow cytometer (Becton Dickinson).
# The role of MTP in CD1d presentation by primary mouse APCs was examined. Splenocytes were isolated from wild type mice and assayed for their ability to present an exogenous antigen, α-galcer, to DN32 NKT cells and their ability to stimulate the autoreactive NKT cell line 24.8. When splenocytes were incubated with BMS212122 for 24 hours prior to addition of NKT cells, their ability to present exogenous and endogenous CD1d-restricted antigens was reduced (FIG. 17B). […] Dendritic cells were then isolated from wild type splenocytes by positive selection on CD11c magnetic beads. […] Dendritic cells from mouse bone marrow (BMDC) were cultured with BMS212122 or vehicle control after 6 days of differentiation in the presence of GM-CSF. On day 10, BMDCs were collected and cocultured with NKT cells. […]
smiles,measurement,setting,value
"Cc1ccc2c(nc(C)n2CCCCC2(C(=O)NCC(F)(F)F)c3ccccc3-c3ccccc32)c1NC(=O)c1ccccc1-c1ccc(C(F)(F)F)cc1 [BMS212122, 9-[4-[2,5-Dimethyl-4-[[[4′-(trifluoromethyl)[1,1′-biphenyl]-2-yl]carbonyl]amino]-1H-benzimidazol-1-yl]butyl]-N-(2,2,2-trifluoroethyl)-9H-fluorene-9-carboxamide]",CD11c surface staining,BMDCs,unaffected
same,MHC class II surface staining,BMDCs,unaffected
same,"CD1d expression on BMDCs, % of vehicle controls",after 4 days of treatment,66%
same,"CD1d expression on BMDCs, % of level in vehicle treated controls",one day after addition,86%
